Assay results as given in ChEMBL document CHEMBL5338803, “Novel Medicinal Chemistry Strategies Targeting CDK5 for Drug Discovery” (J Med Chem, 2023).

Legend:
CDK2/Cyclin A1 = CDK2/Cyclin A1 (Homo sapiens, UniProt P24941); test: Inhibition of CDK2/cyclin A (unknown origin); format: protein-complex assay
[1] = Selectivity ratio of IC50 for CDK5 (unknown origin) to IC50 for CDK2 (unknown origin)
SH-SY5Y = test: Neuroprotective activity against amyloid beta (25 to 35)-induced cell damage in human SH-SY5Y cells assessed as survival rate at 10 uM measured after 72 hrs by MTT assay; format: functional; conditions: read-out: Survival
[2] = molecular target: Cyclin-dependent kinase 5/CDK5 activator 1 (Homo sapiens, UniProt Q00535); test: Inhibition of CDK5/p25 (unknown origin); format: protein-complex assay
Sequence of Cyclin-dependent kinase 5/CDK5 activator 1 (Q00535 whole entry): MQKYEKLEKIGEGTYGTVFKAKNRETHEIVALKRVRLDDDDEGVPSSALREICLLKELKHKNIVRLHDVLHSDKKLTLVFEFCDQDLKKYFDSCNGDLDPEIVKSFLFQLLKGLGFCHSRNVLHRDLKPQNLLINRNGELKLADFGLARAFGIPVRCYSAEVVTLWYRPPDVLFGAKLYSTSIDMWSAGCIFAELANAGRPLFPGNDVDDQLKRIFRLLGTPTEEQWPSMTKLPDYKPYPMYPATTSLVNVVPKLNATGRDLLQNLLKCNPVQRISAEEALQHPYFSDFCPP
Sequence of Cyclin-dependent kinase 5/CDK5 activator 1 (Q15078 whole entry, further chain): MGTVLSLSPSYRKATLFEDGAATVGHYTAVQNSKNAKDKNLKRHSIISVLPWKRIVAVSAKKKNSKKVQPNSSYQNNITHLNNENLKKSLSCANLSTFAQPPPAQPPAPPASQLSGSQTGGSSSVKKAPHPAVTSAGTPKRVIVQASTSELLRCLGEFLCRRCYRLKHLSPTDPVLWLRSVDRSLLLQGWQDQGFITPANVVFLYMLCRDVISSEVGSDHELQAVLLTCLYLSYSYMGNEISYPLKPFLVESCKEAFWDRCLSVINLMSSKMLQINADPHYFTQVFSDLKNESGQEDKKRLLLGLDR

[3] = molecular target: Cyclin-dependent kinase 5 (Homo sapiens) (UniProt Q00535); test: Binding affinity to CDK5 (unknown origin) assessed as change in gibbs free energy
Sequence of Cyclin-dependent kinase 5 (Homo sapiens) (Q00535 whole entry, looked up): as the sequence (Q00535 whole entry) above

[4] = molecular target: Cyclin-dependent kinase 5 (Homo sapiens) (UniProt Q00535); test: Inhibition of CDK5 (unknown origin) at 10 uM relative to control
[5] = molecular target: Dual specificity tyrosine-phosphorylation-regulated kinase 1A (Homo sapiens) (UniProt Q13627); test: Inhibition of DYRK1A (unknown origin) at 10 uM relative to control
[6] = molecular target: Glycogen synthase kinase-3 beta (Homo sapiens, UniProt P49841); test: Inhibition of GSK3beta (unknown origin)
Sequence of Glycogen synthase kinase-3 beta (P49841 whole entry): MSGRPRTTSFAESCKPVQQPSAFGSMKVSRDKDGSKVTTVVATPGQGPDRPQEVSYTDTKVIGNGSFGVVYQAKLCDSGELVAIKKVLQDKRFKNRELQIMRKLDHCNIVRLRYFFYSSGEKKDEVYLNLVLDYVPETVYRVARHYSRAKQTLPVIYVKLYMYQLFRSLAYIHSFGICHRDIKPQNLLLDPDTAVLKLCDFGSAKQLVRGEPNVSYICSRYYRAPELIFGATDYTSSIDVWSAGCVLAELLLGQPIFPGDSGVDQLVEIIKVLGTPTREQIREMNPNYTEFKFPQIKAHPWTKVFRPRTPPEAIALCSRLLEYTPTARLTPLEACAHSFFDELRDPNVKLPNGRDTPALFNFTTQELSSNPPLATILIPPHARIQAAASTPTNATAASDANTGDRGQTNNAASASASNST

[7] = Selectivity index, ratio of IC50 for CDK2/cyclin A (unknown origin) to IC50 for CDK5/p25 (unknown origin)

SMILES: CN1CCC(N(CC(=O)O)c2ccc3cnc(Nc4ccc(-n5ccc(CO)n5)cc4F)cc3n2)CC1
- IC50 (CDK2/Cyclin A1): 444 nM
- Ratio IC50 [1]: 100

SMILES: COc1ccc(OCC(=O)Nc2cccc(-c3nc4ccccc4c(=O)o3)c2)cc1
- viability at 10 µM (SH-SY5Y): 82.9%

SMILES: COc1ccc(CC(=O)Cc2ccn([C@H]3C[C@@H](C(N)=O)C3)c2)cc1
- IC50 [2]: 9 nM
- IC50 (CDK2/Cyclin A1): 63 nM
- deltaG [3]: -23 kcal/mol

SMILES: CN1C(=O)COc2ccc(-c3nn(Cc4ccccc4)c(=O)c4ccccc34)cc21
- viability at 10 µM (SH-SY5Y): 80.1%

SMILES: NS(=O)(=O)c1cccc(Nc2ncc3c(n2)CCCC3)c1
- inhibition [4]: 98%
- inhibition [5]: 95%

SMILES: O=c1oc2cc(O)cc(O)c2c2ccccc12
- inhibition [4]: 62%
- inhibition [5]: 92.2%

SMILES: C[C@]12CC[C@H]3[C@@H](CCC4=CC(=O)CC[C@@]43C)[C@@H]1CC[C@@H]2C(=O)COS(=O)(=O)c1ccc(Br)cc1
- IC50 [2]: 6000 nM

SMILES: O=C(C1=C(O)C(=O)N(CCc2c[nH]c3ccccc23)C1c1cccnc1)c1ccc(Cl)cc1 (centres undefined)
- viability at 10 µM (SH-SY5Y): 82.8%

SMILES: O=C(Nc1cc(Br)ccn1)Nc1cccc2c1C1CCCCN1C2=O (centres undefined)
- IC50 [6]: 22 nM

SMILES: O=C(Nc1csc(Cc2c(Cl)cccc2Cl)n1)NN1CCOCC1
- Ratio IC50 [7]: 10

SMILES: O=C(NOc1ccccc1)Nc1csc(Cc2c(Cl)cccc2Cl)n1
- IC50 (CDK2/Cyclin A1): > 100000 nM
- Ratio IC50 [1]: 100

SMILES: NC(=O)CN1C(=O)C(O)(CC(=O)c2ccc3ccccc3c2)c2ccccc21 (centres undefined)
- viability at 10 µM (SH-SY5Y): 82.6%

SMILES: C[C@@]12CCC[C@H]1[C@@H]1CC[C@H]3C[C@H](N)CC[C@]3(C)[C@H]1CC2
- IC50 [2]: 6000 nM
